Results from paper PMC5560858, “A lectin receptor kinase as a potential sensor for extracellular nicotinamide adenine dinucleotide in Arabidopsis thaliana” (eLife, 2017).

Biological target: T1, LecRK-I.8 (lectin receptor kinase-I.8, At5g60280) (Arabidopsis thaliana, UniProt Q9LSR9)
T1 construct: gene LECRK18; extracellular lectin domain (amino acids 23 to 283) fused to GFP (eLecRK-I.8-GFP)
Test: […]-NAD+ radioligand saturation binding to immunoprecipitated eLecRK-I.8-GFP; also competition, and binding to recombinant MBP-eLecRK-I.[…]

T1 sequence (Q9LSR9 23-283): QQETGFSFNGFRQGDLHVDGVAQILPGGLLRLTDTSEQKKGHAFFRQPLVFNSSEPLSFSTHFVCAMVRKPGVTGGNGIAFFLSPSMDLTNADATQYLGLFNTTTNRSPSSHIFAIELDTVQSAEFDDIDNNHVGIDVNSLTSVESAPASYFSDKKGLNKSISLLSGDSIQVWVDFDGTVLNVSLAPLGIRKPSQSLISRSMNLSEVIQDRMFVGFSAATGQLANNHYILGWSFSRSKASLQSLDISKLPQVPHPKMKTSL

NC(=O)c1ccc[n+]([C@@H]2O[C@H](COP(=O)([O-])OP(=O)(O)OC[C@H]3O[C@@H](n4cnc5c(N)ncnc54)[C@H](O)[C@@H]3O)[C@@H](O)[C@H]2O)c1 [NAD+] gave a Kd of 437 ± 105 nM.
